Data reported in ChEMBL document CHEMBL1201861, “Genomics of Drug Sensitity in Cancer screening data, Wellcome Trust Sanger Institute”.

Key:
Test in all cases: cells
Format in all cases: functional, cell-based
[1] = test system: T84; details: Homo sapiens;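 also: growth inhibition measured with a cell viability readout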
Description: SANGER: Inhibition of human T84 cell growth in a cell viability assay.

[2] = test system: VM-CUB-1; details: Homo sapiens;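 also: cell viability assay measuring growth inhibition of the human VM-CUB-1 cell line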
Description: SANGER: Inhibition of human VM-CUB-1 cell growth in a cell viability assay.

[3] = test system: HuO9; details: Homo sapiens;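 also: growth inhibition of HuO9 cells, read out with a cell viability assay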
Description: SANGER: Inhibition of human HuO9 cell growth in a cell viability assay.

[4] = test system: BCPAP; details: Homo sapiens;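 also: growth inhibition of BCPAP cells, read out in a cell viability assay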
Description: SANGER: Inhibition of human BCPAP cell growth in a cell viability assay.

[5] = test system: KP-4; details: Homo sapiens;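 also: human KP-4 cells, with growth inhibition read out through a cell viability assay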
Description: SANGER: Inhibition of human KP-4 cell growth in a cell viability assay.

[6] = test system: OAW-42; details: Homo sapiens;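 also: growth inhibition of OAW-42 cells, read out with a cell viability assay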
Description: SANGER: Inhibition of human OAW-42 cell growth in a cell viability assay.

[7] = test system: HT55; details: Homo sapiens;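 also: cell viability readout measuring growth inhibition of human HT55 cells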
Description: SANGER: Inhibition of human HT55 cell growth in a cell viability assay.

[8] = test system: M059J; details: Homo sapiens;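 also: growth inhibition of M059J cells, read out with a cell viability assay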
Description: SANGER: Inhibition of human M059J cell growth in a cell viability assay.

[9] = test system: EFO-27; details: Homo sapiens;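 also: growth inhibition of EFO-27 cells, read out with a cell viability assay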
Description: SANGER: Inhibition of human EFO-27 cell growth in a cell viability assay.

[10] = test system: H4; details: Homo sapiens
Description: SANGER: Inhibition of human H4 cell growth in a cell viability assay.

[11] = test system: NCI-H650; details: Homo sapiens;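 also: growth inhibition of NCI-H650 cells, read out by a viability assay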
Description: SANGER: Inhibition of human NCI-H650 cell growth in a cell viability assay.

[12] = test system: NCI-H2052; details: Homo sapiens;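 also: growth inhibition of NCI-H2052 cells, read out with a cell viability assay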
Description: SANGER: Inhibition of human NCI-H2052 cell growth in a cell viability assay.

[13] = test system: HN; details: Homo sapiens
Description: SANGER: Inhibition of human HN cell growth in a cell viability assay.

[14] = test system: KOSC-2; details: Homo sapiens;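 also: growth inhibition of KOSC-2 cells, read out by a cell viability assay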
Description: SANGER: Inhibition of human KOSC-2 cell growth in a cell viability assay.

[15] = test system: HOP-92; details: Homo sapiens;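 also: cell viability readout, with IC50 reflecting inhibition of HOP-92 cell growth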
Description: SANGER: Inhibition of human HOP-92 cell growth in a cell viability assay.

[16] = test system: AU565; details: Homo sapiens;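 also: cell viability assay measuring growth inhibition of human AU565 cells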
Description: SANGER: Inhibition of human AU565 cell growth in a cell viability assay.

[17] = test system: HCC1937; details: Homo sapiens;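 also: growth inhibition measured with a cell viability read-out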
Description: SANGER: Inhibition of human HCC1937 cell growth in a cell viability assay.

[18] = test system: ESS-1; details: Homo sapiens;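 also: growth inhibition of human ESS-1 cells, read out by a cell viability assay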
Description: SANGER: Inhibition of human ESS-1 cell growth in a cell viability assay.

[19] = test system: YAPC; details: Homo sapiens;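 also: growth inhibition of YAPC cells, measured with a cell viability assay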
Description: SANGER: Inhibition of human YAPC cell growth in a cell viability assay.

[20] = test system: CAL-27; details: Homo sapiens;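 also: Viability-based readout, IC50 reflecting inhibition of CAL-27 cell growth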
Description: SANGER: Inhibition of human CAL-27 cell growth in a cell viability assay.

[21] = test system: IGROV-1; details: Homo sapiens;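 also: reduction of IGROV-1 cell growth, read out with a viability assay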
Description: SANGER: Inhibition of human IGROV-1 cell growth in a cell viability assay.

[22] = test system: Detroit 562; details: Homo sapiens;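 also: growth inhibition of human Detroit 562 cells, read out by a cell viability assay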
Description: SANGER: Inhibition of human Detroit562 cell growth in a cell viability assay.

[23] = test system: RO82-W-1; details: Homo sapiens;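 also: growth inhibition of human RO82-W-1 cells, measured with a cell viability assay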
Description: SANGER: Inhibition of human RO82-W-1 cell growth in a cell viability assay.

[24] = test system: HT-1080; details: Homo sapiens
Description: SANGER: Inhibition of human HT-1080 cell growth in a cell viability assay.

[25] = test system: BXPC-3; details: Homo sapiens;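 also: growth inhibition of human BxPC-3 cells, read out by a cell viability assay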
Description: SANGER: Inhibition of human BxPC-3 cell growth in a cell viability assay.

[26] = test system: EFM-19; details: Homo sapiens;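 also: growth inhibition of human EFM-19 cells, measured in a cell viability assay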
Description: SANGER: Inhibition of human EFM-19 cell growth in a cell viability assay.

[27] = test system: A2780; details: Homo sapiens;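 also: growth inhibition of A2780 cells, read out with a cell viability assay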
Description: SANGER: Inhibition of human A2780 cell growth in a cell viability assay.

[28] = test system: DU-145; details: Homo sapiens
Description: SANGER: Inhibition of human DU-145 cell growth in a cell viability assay.

[29] = test system: COLO-679; details: Homo sapiens
Description: SANGER: Inhibition of human COLO-679 cell growth in a cell viability assay.

[30] = test system: GP5d; details: Homo sapiens;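 also: growth inhibition of human GP5d cells, read out with a cell viability assay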
Description: SANGER: Inhibition of human GP5d cell growth in a cell viability assay.

[31] = test system: LCLC-97TM1; details: Homo sapiens;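 also: cell viability assay measuring growth inhibition of human LCLC-97TM1 cells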
Description: SANGER: Inhibition of human LCLC-97TM1 cell growth in a cell viability assay.

[32] = test system: CWR22R; details: Homo sapiens, 22Rv1;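 also: growth inhibition of 22Rv1 cells, read out with a cell viability assay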
Description: SANGER: Inhibition of human 22RV1 cell growth in a cell viability assay.

[33] = test system: HCC 2998; details: Homo sapiens;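 also: growth inhibition of human HCC2998 cells, measured with a cell viability read-out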
Description: SANGER: Inhibition of human HCC2998 cell growth in a cell viability assay.

[34] = test system: NCI-H2452; details: Homo sapiens;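 also: growth inhibition of NCI-H2452 cells, read out with a cell viability assay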
Description: SANGER: Inhibition of human NCI-H2452 cell growth in a cell viability assay.

[35] = test system: SK-MEL-24; details: Homo sapiens;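 also: growth inhibition read out by a cell viability assay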
Description: SANGER: Inhibition of human SK-MEL-24 cell growth in a cell viability assay.

[36] = test system: COLO-792; details: Homo sapiens
Description: SANGER: Inhibition of human COLO-792 cell growth in a cell viability assay.

[37] = test system: NCI-H1437; details: Homo sapiens;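 also: growth inhibition of human NCI-H1437 cells, read out by a cell viability assay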
Description: SANGER: Inhibition of human NCI-H1437 cell growth in a cell viability assay.

[38] = test system: NCI-H2087; details: Homo sapiens;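 also: growth inhibition determined with a cell viability readout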
Description: SANGER: Inhibition of human NCI-H2087 cell growth in a cell viability assay.

[39] = test system: OVCAR-5; details: Homo sapiens;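 also: growth inhibition of human OVCAR-5 cells, read out with a cell viability assay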
Description: SANGER: Inhibition of human OVCAR-5 cell growth in a cell viability assay.

[40] = test system: NCI-H460; details: Homo sapiens;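 also: cell viability assay scoring growth inhibition of human NCI-H460 cells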
Description: SANGER: Inhibition of human NCI-H460 cell growth in a cell viability assay.

[41] = test system: LoVo; details: Homo sapiens;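 also: growth inhibition of human LoVo cells, read out with a cell viability assay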
Description: SANGER: Inhibition of human LoVo cell growth in a cell viability assay.

[42] = test system: HT-3; details: Homo sapiens;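 also: growth inhibition measured with a cell viability readout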
Description: SANGER: Inhibition of human HT-3 cell growth in a cell viability assay.

[43] = test system: SJRH30; details: Homo sapiens;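 also: growth inhibition of human SJRH30 cells, read out with a cell viability assay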
Description: SANGER: Inhibition of human SJRH30 cell growth in a cell viability assay.

[44] = test system: IGR-1; details: Homo sapiens;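 also: growth inhibition of human IGR-1 cells, read out with a cell viability assay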
Description: SANGER: Inhibition of human IGR-1 cell growth in a cell viability assay.

[45] = test system: HCC1419; details: Homo sapiens;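 also: growth inhibition of human HCC1419 cells, read out as cell viability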
Description: SANGER: Inhibition of human HCC1419 cell growth in a cell viability assay.

[46] = test system: NCI-H1755; details: Homo sapiens;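 also: cell viability readout used to measure growth inhibition of NCI-H1755 cells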
Description: SANGER: Inhibition of human NCI-H1755 cell growth in a cell viability assay.

[47] = test system: HSC-4; details: Homo sapiens;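 also: growth inhibition of human HSC-4 cells, read out with a cell viability assay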
Description: SANGER: Inhibition of human HSC-4 cell growth in a cell viability assay.

[48] = test system: Kasumi 1; details: Homo sapiens;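 also: growth inhibition of human Kasumi-1 cells, read out by a cell viability assay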
Description: SANGER: Inhibition of human KASUMI-1 cell growth in a cell viability assay.

[49] = test system: NCI-H2009; details: Homo sapiens;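 also: cell viability assay measuring inhibition of NCI-H2009 cell growth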
Description: SANGER: Inhibition of human NCI-H2009 cell growth in a cell viability assay.

[50] = test system: HMV-2 cell line; details: Homo sapiens;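 also: growth inhibition of HMV-II cells, read out with a cell viability assay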
Description: SANGER: Inhibition of human HMV-II cell growth in a cell viability assay.

[51] = test system: D-336MG; details: Homo sapiens
Description: SANGER: Inhibition of human D-336MG cell growth in a cell viability assay.

Cn1c(=O)n(-c2ccc(C(C)(C)C#N)cc2)c2c3cc(-c4cnc5ccccc5c4)ccc3ncc21 [DACTOLISIB]
IC50 [1]: > 2000 nM
IC50 [2]: 33.4 nM
IC50 [3]: 26.8 nM
IC50 [4]: 18.7 nM
IC50 [5]: 7 nM
IC50 [6]: 73.4 nM
IC50 [7]: 1310 nM
IC50 [8]: 63.6 nM
IC50 [9]: 24.3 nM
IC50 [10]: 12.7 nM
IC50 [11]: 94.1 nM
IC50 [12]: 175 nM
IC50 [13]: 5.96 nM
IC50 [14]: 70 nM
IC50 [15]: 26.5 nM
IC50 [16]: 213 nM
IC50 [17]: 187 nM
IC50 [18]: 135 nM
IC50 [19]: 491 nM
IC50 [20]: 217 nM
IC50 [21]: 136 nM
IC50 [22]: 102 nM
IC50 [23]: 59.9 nM
IC50 [24]: 21.9 nM
IC50 [25]: 81.5 nM
IC50 [26]: 67.5 nM
IC50 [27]: 106 nM
IC50 [28]: > 2000 nM
IC50 [29]: 122 nM
IC50 [30]: 434 nM
IC50 [31]: 82.9 nM
IC50 [32]: 49.1 nM
IC50 [33]: 118 nM
IC50 [34]: 44.6 nM
IC50 [35]: 517 nM
IC50 [36]: 354 nM
IC50 [37]: 80.5 nM
IC50 [38]: 235 nM
IC50 [39]: 35.5 nM
IC50 [40]: 81.2 nM
IC50 [41]: 48.4 nM
IC50 [42]: 380 nM
IC50 [43]: 144 nM
IC50 [44]: 46.1 nM
IC50 [45]: 38.7 nM
IC50 [46]: 139 nM

CC(=O)c1c(C)c2cnc(Nc3ccc(N4CCNCC4)cn3)nc2n(C2CCCC2)c1=O [PALBOCICLIB]
IC50 [1]: > 4000 nM
IC50 [2]: > 4000 nM
IC50 [3]: > 4000 nM
IC50 [4]: 1660 nM
IC50 [6]: > 4000 nM
IC50 [7]: > 4000 nM
IC50 [8]: > 4000 nM
IC50 [9]: 2320 nM
IC50 [10]: 1730 nM
IC50 [11]: > 4000 nM
IC50 [12]: > 4000 nM
IC50 [13]: 1540 nM
IC50 [14]: 467 nM
IC50 [15]: 3500 nM
IC50 [16]: > 4000 nM
IC50 [17]: > 4000 nM
IC50 [18]: > 4000 nM
IC50 [19]: > 4000 nM
IC50 [20]: 495 nM
IC50 [21]: > 4000 nM
IC50 [22]: > 4000 nM
IC50 [23]: 2620 nM
IC50 [24]: 1380 nM
IC50 [25]: > 4000 nM
IC50 [26]: > 4000 nM
IC50 [27]: > 4000 nM
IC50 [28]: 3460 nM
IC50 [29]: > 4000 nM
IC50 [30]: > 4000 nM
IC50 [31]: > 4000 nM
IC50 [32]: 1680 nM
IC50 [33]: > 4000 nM
IC50 [34]: > 4000 nM
IC50 [36]: > 4000 nM
IC50 [37]: > 4000 nM
IC50 [38]: > 4000 nM
IC50 [39]: 900 nM
IC50 [40]: 3670 nM
IC50 [41]: > 4000 nM
IC50 [42]: > 4000 nM
IC50 [43]: > 4000 nM
IC50 [44]: > 4000 nM
IC50 [45]: > 4000 nM
IC50 [46]: > 4000 nM

C[C@]1(c2nc3c(C(N)=O)cccc3[nH]2)CCCN1 [VELIPARIB]
IC50 [1]: > 5000 nM
IC50 [2]: > 5000 nM
IC50 [3]: > 5000 nM
IC50 [4]: > 5000 nM
IC50 [5]: > 5000 nM
IC50 [6]: > 5000 nM
IC50 [7]: > 5000 nM
IC50 [8]: > 5000 nM
IC50 [9]: > 5000 nM
IC50 [10]: > 5000 nM
IC50 [11]: > 5000 nM
IC50 [12]: > 5000 nM
IC50 [13]: > 5000 nM
IC50 [47]: > 5000 nM
IC50 [14]: > 5000 nM
IC50 [15]: > 5000 nM
IC50 [16]: > 5000 nM
IC50 [17]: > 5000 nM
IC50 [18]: > 5000 nM
IC50 [19]: > 5000 nM
IC50 [20]: > 5000 nM
IC50 [21]: > 5000 nM
IC50 [22]: > 5000 nM
IC50 [23]: > 5000 nM
IC50 [24]: > 5000 nM
IC50 [25]: > 5000 nM
IC50 [26]: > 5000 nM
IC50 [27]: > 5000 nM
IC50 [28]: > 5000 nM
IC50 [29]: > 5000 nM
IC50 [48]: > 5000 nM
IC50 [30]: > 5000 nM
IC50 [31]: > 5000 nM
IC50 [32]: > 5000 nM
IC50 [33]: > 5000 nM
IC50 [34]: > 5000 nM
IC50 [35]: > 5000 nM
IC50 [36]: > 5000 nM
IC50 [37]: > 5000 nM
IC50 [38]: > 5000 nM
IC50 [49]: > 5000 nM
IC50 [50]: > 5000 nM
IC50 [39]: > 5000 nM
IC50 [40]: > 5000 nM
IC50 [41]: > 5000 nM
IC50 [42]: > 5000 nM
IC50 [44]: > 5000 nM
IC50 [45]: > 5000 nM
IC50 [51]: > 5000 nM
IC50 [46]: > 5000 nM
